Data published in ChEMBL document CHEMBL3045724, “Synthesis, biopharmaceutical characterization, and antimicrobial study of novel azo dyes of 7-hydroxy-4-methylcoumarin” (2013).

Columns and labels:
Type in all cases: functional
Bacillus subtilis = assay: Antimicrobial activity against Bacillus subtilis assessed as diameter of growth inhibition zone after 48 hr by agar cup plate method
Aspergillus niger = assay: Antimicrobial activity against Aspergillus niger assessed as diameter of growth inhibition zone
Salmonella typhi = assay: Antimicrobial activity against Salmonella enterica subsp. enterica serovar Typhi assessed as diameter of growth inhibition zone after 48 hr by agar cup plate method
Escherichia coli = assay: Antimicrobial activity against Escherichia coli assessed as diameter of growth inhibition zone after 48 hr by agar cup plate method
Staphylococcus aureus = assay: Antimicrobial activity against Staphylococcus aureus assessed as diameter of growth inhibition zone after 48 hr by agar cup plate method

| Structure (SMILES) | inhibition zone (IZ) (Bacillus subtilis) [mm] | inhibition zone (IZ) (Aspergillus niger) [mm] | inhibition zone (IZ) (Salmonella typhi) [mm] | inhibition zone (IZ) (Escherichia coli) [mm] | inhibition zone (IZ) (Staphylococcus aureus) [mm] |
| --- | --- | --- | --- | --- | --- |
| CC1(C)S[C@@H]2[C@H](NC(=O)[C@H](N)c3ccccc3)C(=O)N2[C@H]1C(=O)O [AMPICILLIN] | >15 | 10 | >15 | >15 | 10 |
| CN[C@@H]1[C@H](O[C@H]2[C@H](O[C@H]3[C@H](O)[C@@H](O)[C@H](N=C(N)N)[C@@H](O)[C@@H]3N=C(N)N)O[C@@H](C)[C@]2(O)C=O)O[C@@H](CO)[C@H](O)[C@H]1O [STREPTOMYCIN] | >15 | >15 | >15 | 10 | >15 |
| Cc1c/c(=N/CC/N=c2/cc(C)c3ccc(O)c(/N=N/c4ccncc4)c3o2)oc2c(/N=N/c3ccncc3)c(O)ccc12 | 10 | >15 | 10 | >15 | >15 |
| Cc1c/c(=N/CC/N=c2/cc(C)c3ccc(O)c(/N=N/C4=NCCS4)c3o2)oc2c(/N=N/C3=NCCS3)c(O)ccc12 | 10 | >15 | >15 | >15 | >15 |
| Cc1c/c(=N/CC/N=c2/cc(C)c3ccc(O)c(/N=N/c4cccnc4)c3o2)oc2c(/N=N/c3cccnc3)c(O)ccc12 | >15 | <5 | >15 | 10 | >15 |
| Cc1c/c(=N/CC/N=c2/cc(C)c3ccc(O)c(/N=N/c4ccccn4)c3o2)oc2c(/N=N/c3ccccn3)c(O)ccc12 | >15 | >15 | >15 | >15 | >15 |
| Cc1c/c(=N/CC/N=c2/cc(C)c3ccc(O)c(/N=N/c4c(C)n(C)n(-c5ccccc5)c4=O)c3o2)oc2c(/N=N/c3c(C)n(C)n(-c4ccccc4)c3=O)c(O)ccc12 | >15 | >15 | – | 10 | 10 |
| Cc1c/c(=N/CC/N=c2/cc(C)c3ccc(O)c(/N=N/c4cccc5ccccc45)c3o2)oc2c(/N=N/c3cccc4ccccc34)c(O)ccc12 | >15 | >15 | >15 | >15 | >15 |
